From patent publication US20250179057A1, “MEK IMMUNE ONCOLOGY INHIBITORS AND THERAPEUTIC USES THEREOF” (Immuneering Corporation, priority 2022, published 2025)
Several values for one entry are separate records, joined by “and”; a condition that tells them apart may be missing. Equal values may be shown once.

Key:
[1] = test system: phospho-ERK in A549 (KRAS G12S) cells; assay: Cell-based pERK (pERK:tERK) in A549 cells; design: A549-pERK 10 uM, 2 h: unit not given here; conditions: for activity at 0.01 µM: Homo sapiens, A549, 2 h, read-out: A549-pERK (10 nM, 2 h); for A549-pERK (10 nM, 2 h): phospho- to total protein ratio normalized to DMSO control (Table 9)
Method: Media components, reagents and buffers for Western Blot: All cell culture media components were obtained from ThermoFisher Scientific. […] Laemmli sample loading 4× buffer (ThermoFisher Scientific, Cat No. NP0007). MOPS/SDS electrophoresis running buffer (GenScript, Cat No. M00138).
Subculture conditions: Adherent cells were grown to approximately 90% confluency, culture medium was aspirated and the cell layer was rinsed with PBS. […] Eight mL media was added, cells were spun down at 1000×g for 5 minutes. Cell pellet was re-suspended in 10 mL media and an appropriate volume was inoculated into a new culture flask.
Compound (drug) treatment: Cells were plated in a 6-well plate at a density of 250,000-300,000 cells/well in 3 mL media and incubated 37° C. in a humidified, 5% CO2 incubator. […] These solutions were added to the cells (3 uL/well), mixed by swirling the plate, and incubated at 37° C. in a humidified, 5% CO2 incubator for 2 hours.
Cell lysis and protein estimation: Cells were washed with PBS, and scraped in 50 μL of lysis buffer containing protease and phosphatase inhibitors. Cell lysates were stored at −20° C. Cell lysates were thawed and spun at 12,000 rpm for one minute, 3 ul of the supernatant was added to 500 μL of Coomassie blue reagent following by 500 μL of water. […] Protein standards were used (0-20 mg/mL) to calculate protein concentrations of test samples.
All samples were heated at 95° C. for 5 minutes, cooled to room temperature and spun down. […] After the run, gel was removed and protein transfer was done using iBlot for 7 minutes, as per manufacturer's recommendations. After the transfer, nitrocellulose membrane was incubated on a shaker in 5 mL of blocking buffer at room temperature for 1 hr. The blot was then incubated overnight on a shaker in 5 ml of blocking buffer containing 0.2% Tween-20 and primary antibody, at room temperature. Anti-phospho-STAT3 antibody was used at a dilution of 1:500, the other 3 primary antibodies were used at a dilution of 1:1000.
Next day, the blot was washed 3 times for 10 min each with 10 mL of TBST followed by incubation on a shaker in 5 ml of blocking buffer containing 0.2% Tween-20 and 0.5 ul of the IRDye labeled secondary antibodies, diluted 1:10000, at room temperature for 1 hr. The blot was then washed 3 times for 10 min each with 10 mL of TBST and dried between sheets of paper towels. Imaging was done using LICOR's Odyssey imaging system, quantitation was done using their software, Image Studio version 3.1.
(§1) Materials and Methods: A549 or A375 cells were seeded in 6-well plates at an appropriate seeding density on day 0. On day 2 or 3, after checking the health and confluency of cells, the media was aspirated and replaced with 1 mL media containing a predetermined concentration of compound and incubated for 2 hours. After 2 hours, the media was aspirated, and the cells washed 2 times with cold PBS. Cells were lysed on ice, with 50 uL 1×CST lysis buffer +1 mM PMSF for 5 minutes. After 5 minutes, cells were removed using a scraper and transferred to cold 1.5 mL tubes, and centrifuged for 10 min, 4° C., 14,000×g. Supernatant was gently removed and snap frozen in liquid nitrogen. Protein concentration of the lysate was determined using Bradford Reagent (analyzed using SpectraMax M2E) and diluted to 1 mg/mL or pERK or 1.5 mg/mL for pMEK analysis. […] All dilutions were in Milk-free antibody diluent.
They were grown in T75 flasks in DMEM containing 10% FBS and Pen-Strep. at 37° C. in a humidified, 5% CO2 incubator. The adherent cells were grown to about 90% confluency, culture medium was aspirated, and the cell layer was rinsed with PBS. […] Eight mL media was added, cells were spun down at 1000 g for 5 minutes. Cell pellet was re-suspended in 10 mL media and an appropriate volume was inoculated into a new culture flask. Cells were plated in a 6-well plate at a density of 250,000-300,000 cells/well in 3 mL media and incubated 37° C. in a humidified, 5% CO2 incubator.

PAMPA (pH 7.4) = format: in vitro ADME; conditions: PAMPA; pH = 7.4 (Table 14)
[2] = test system: phospho-MEK in A549 cells; assay: Cell-based pMEK (pMEK:tMEK, CRAF bypass) in A549 cells; conditions: 2 h, pMEK to total MEK normalized to DMSO control
Method: as §1
(§2) A549 or […] cells were treated in duplicate for two hours with compounds at varying concentrations. After two hours, the cells were lysed, snap frozen, and stored at −80° C. After storage, the lysate was quantified with the Bradford assay. Before the lysates were prepared to run on the Jess, the lysates were diluted to 1 mg/mL for pERK analysis and 1.5 mg/mL pMEK analysis using quantitative Western blotting. ERK and MEK phosphorylation levels were estimated by taking the ratio of phospho-protein to total protein and normalizing to the DMSO control.
as §2

SMILES | activity at 0.01 µM [1] | Papp at 4 h, 50 μM (PAMPA (pH 7.4)) | A549-pERK (10 nM, 2 h) ([1]; 2 h) | A549-CRAF BP 100 nM, 2 h [2] | A549-pERK 10 uM, 2 h ([1]; 10 uM, 2 h, phospho- to total protein ratio normalized to DMSO control)
CN(C)C(=O)Oc1cc2oc(=O)c(Cc3cccc(NS(=O)(=O)CC(F)(F)F)c3F)c(CN3CCNCC3)c2cc1F [Compound 239] | 96.1% | 0.8 ×10⁻⁶ cm/s |  |  | 
CCS(=O)(=O)Nc1cccc(Cc2c(CN(C)CCF)c3ccc(OC(=O)N(C)C)cc3oc2=O)c1F [Compound 241] | 96.6% | 69 ×10⁻⁶ cm/s |  |  | 
CCS(=O)(=O)Nc1cccc(Cc2c(CN3CCNCC3)c3ccc(OC(=O)N(C)C)cc3oc2=O)c1Cl [Compound 258, 3-(2-chloro-3-(ethylsulfonamido)benzyl)-2-oxo-4-(piperazin-1-ylmethyl)-2H-chromen-7-yl dimethylcarbamate] |  | 1 ×10⁻⁶ cm/s |  |  | 
CCN(C)Cc1c(Cc2cccc(NS(=O)(=O)CC(F)(F)F)c2F)c(=O)oc2cc(OC(=O)N(C)C)c(F)cc12 [Compound 237] | 114% | 50 ×10⁻⁶ cm/s |  |  | 
CN(C)C(=O)Oc1ccc2c(CN3CCNCC3)c(Cc3ccnc(NS(=O)(=O)C4CC4)c3F)c(=O)oc2c1 [Compound 150] |  |  | 47.4 | 90.2 | 
CNS(=O)(=O)Nc1cccc(Cc2c(CN(C)C)c3c(OC)cc(OC(=O)N(C)C)cc3oc2=O)c1F [Compound 252, 4-((dimethylamino)methyl)-3-(2-fluoro-3-((N-methylsulfamoyl)amino)benzyl)-5-methoxy-2-oxo-2H-chromen-7-yl dimethylcarbamate] |  | 15 ×10⁻⁶ cm/s |  |  | 
CNS(=O)(=O)Nc1cccc(Cc2c(CN3CC4(CCC4)C3)c3ccc(OC(=O)N(C)C)cc3oc2=O)c1F [Compound 153] |  |  | 50.2 | 54.1 | 
CCS(=O)(=O)Nc1cccc(Cc2c(C)c3ccc(OC(=O)N(C)C)cc3oc2=O)c1F [Compound 107] |  |  | 18.0 | 39.9 | 
CNS(=O)(=O)Nc1cccc(Cc2c(CN(C)c3ccccc3)c3ccc(OC(=O)N(C)C)cc3oc2=O)c1F [Compound 79] |  |  | 49.4 | 45.2 and 64.9 | 
CNS(=O)(=O)Nc1cccc(Cc2c(CN(C)CC(C)C)c3ccc(OC(=O)N(C)C)cc3oc2=O)c1F [Compound 78] |  |  | 78.6 | 64.2 | 
CCS(=O)(=O)Nc1nccc(Cc2c(CN(C)C)c3ccc(OC(=O)N(C)C)cc3oc2=O)c1F [Compound 148] |  |  | 49.6 | 56.5 | 
CCS(=O)(=O)Nc1cccc(Cc2c(CN(C)CC(F)F)c3ccc(OC(=O)N(C)C)cc3oc2=O)c1F [Compound 243] | 86.7% | 48 ×10⁻⁶ cm/s |  |  | 
C#CCNCCc1c(Cc2cccc(NS(=O)(=O)NC)c2F)c(=O)oc2cc(OC(=O)N(C)C)ccc12 [Compound 183] |  |  | 32.4 | 65.9 (mean, n = 2) | 0.82
CNS(=O)(=O)Nc1cccc(Cc2c(CN3CC(OC)C3)c3ccc(OC(=O)N(C)C)cc3oc2=O)c1F [Compound 74] |  |  | 75.3 | 59.2 | 
CNS(=O)(=O)Nc1cccc(Cc2c(CN(C)CC3CCC3)c3ccc(OC(=O)N(C)C)cc3oc2=O)c1F [Compound 88] |  |  | 142 | 53.6 | 
CNS(=O)(=O)Nc1cccc(Cc2c(C)c3cc(Cl)c(OC(=O)N(C)C)cc3oc2=O)c1F [Compound 109] |  |  | 4.51 | 41.9 (mean, n = 2) | 

SMILES | activity at 0.01 µM [1] | Papp at 4 h, 50 μM (PAMPA (pH 7.4)) | A549-pERK (10 nM, 2 h) ([1]; 2 h) | A549-CRAF BP 100 nM, 2 h [2] | A549-pERK 10 uM, 2 h ([1]; 10 uM, 2 h, phospho- to total protein ratio normalized to DMSO control)
C#CCNCc1c(Cc2cccc(NS(=O)(=O)NC)c2F)c(=O)oc2cc(OC(=O)N(C)C)ccc12 [Compound 14] |  |  | 64 | 59.1 | 
CNS(=O)(=O)Nc1cccc(Cc2c(CN(C)Cc3ccccc3)c3ccc(OC(=O)N(C)C)cc3oc2=O)c1F [Compound 80] |  |  | 56.4 | 56.1 | 
CNS(=O)(=O)Nc1cccc(Cc2c(CN(C)CC3CC3)c3ccc(OC(=O)N(C)C)cc3oc2=O)c1F [Compound 84] |  |  | 83.2 | 87.3 | 
CN(C)Cc1c(Cc2cccc(NS(=O)(=O)CC(F)(F)F)c2F)c(=O)oc2cc(OC(=O)N(C)C)c(F)cc12 [Compound 236] | 94.1% | 52 ×10⁻⁶ cm/s |  |  | 
CNS(=O)(=O)Nc1cccc(Cc2c(C)c3cc(C)c(OC(=O)N(C)C)cc3oc2=O)c1F [Compound 108] |  |  | 5.78 | 47.9 (mean, n = 2) | 
Cc1c(Cc2cccc(NS(=O)(=O)C(C)C)c2F)c(=O)oc2cc(OC(=O)N(C)C)ccc12 [Compound 115] |  |  | 13.5 | 39.2 (mean, n = 2) | 
CNS(=O)(=O)Nc1cccc(Cc2c(CNCC#N)c3ccc(OC(=O)N(C)C)cc3oc2=O)c1F [Compound 33] |  |  | 55.4 | 51.4 | 
Cc1c(Cc2cccc(NS(=O)(=O)C3CC3)c2F)c(=O)oc2cc(OC(=O)N(C)C)ccc12 [Compound 113] |  |  | 24.7 | 48.0 (mean, n = 2) | 
CNS(=O)(=O)Nc1nccc(Cc2c(CN(C)C)c3cc(F)c(OC(=O)N(C)C)cc3oc2=O)c1F [Compound 140] |  |  | 65.0 | 70.3 | 
CNS(=O)(=O)Nc1cccc(Cc2c(CN(C)C)c3c(C)cc(OC(=O)N(C)C)cc3oc2=O)c1F [Compound 253, 4-((dimethylamino)methyl)-3-(2-fluoro-3-((N-methylsulfamoyl)amino)benzyl)-5-methyl-2-oxo-2H-chromen-7-yl dimethylcarbamate] |  | 48 ×10⁻⁶ cm/s |  |  | 
CNS(=O)(=O)Nc1cccc(Cc2c(CNc3ccsc3)c3ccc(OC(=O)N(C)C)cc3oc2=O)c1F [Compound 90] |  |  | 72.4 | 71 | 
CNS(=O)(=O)Nc1cccc(Cc2c(CN(C)C)c3ccc(OC(=O)N4CCC4)cc3oc2=O)c1F [Compound 128] |  |  | 66.3 | 37.7 | 
CCCN(C)Cc1c(Cc2cccc(NS(=O)(=O)NC)c2F)c(=O)oc2cc(OC(=O)N(C)C)ccc12 [Compound 81] |  |  | 57.6 | 78.3 | 
CNS(=O)(=O)Nc1cccc(Cc2c(CN(C)c3ccc(Cl)cc3)c3ccc(OC(=O)N(C)C)cc3oc2=O)c1F [Compound 97] |  |  | 56.5 | 52.1 (mean, n = 2) | 
Cc1c(Cc2ccnc(NS(=O)(=O)C(C)C)c2F)c(=O)oc2cc(OC(=O)N(C)C)ccc12 [Compound 114] |  |  | 36.6 | 59.9 (mean, n = 3) | 
CCS(=O)(=O)Nc1cccc(Cc2c(CN(C)C)c3ccc(OC(=O)N(C)C)cc3oc2=O)c1Cl [Compound 249, 3-(2-chloro-3-(ethylsulfonamido)benzyl)-4-((dimethylamino)methyl)-2-oxo-2H-chromen-7-yl dimethylcarbamate] |  | 64 ×10⁻⁶ cm/s |  |  | 
